Assay results from patent US5795612A, “Aspartyldipeptideamine derivatives and sweetner” (Ajinomoto Co., Inc., priority 1995, dated 1998).
Residues, ends and D or L forms follow the SMILES beside them.

assay: Sensory evaluation of sweetness potency relative to sugar; details: Table 1; compared with 4% aqueous sucrose solution

Point of comparison: `CC[C@H](NC(=O)[C@H](NC(=O)[C@@H](N)CC(=O)O)C(C)C)c1ccncc1` [Example 7, α-L-aspartyl-D-valine (S)-α-4-pyridylpropylamide], “Sweetnes Potency” value 300. Against it:
- COCC(NC(=O)[C@H](NC(=O)[C@@H](N)CC(=O)O)C(C)C)c1ccco1 (mixture of isomers) [Example 9, α-L-aspartyl-D-valine (RS)-α-furyl-β-methoxyethylamide] — lower, 200
- CC[C@H](NC(=O)[C@@H](CC)NC(=O)[C@@H](N)CC(=O)O)c1ccc(O)cc1 [Example 1, α-L-aspartyl-D-α-aminobutyric acid (S)-α-ethyl-p-hydroxybenzylamide] — higher, 2000
- CC[C@@H](NC(=O)[C@@H](N)CC(=O)O)C(=O)N[C@@H](COC)c1ccc(O)cc1 [Example 2, α-L-aspartyl-D-α-aminobutyric acid (R)-α-methoxymethyl-p-hydroxybenzylamide] — higher, 1500
- CC[C@H](NC(=O)[C@H](NC(=O)[C@@H](N)CC(=O)O)C(C)C)c1ccc(O)cc1 [Example 3, α-L-aspartyl-D-valine (S)-α-ethyl-p-hydroxybenzylamide] — higher, 1500
- COC[C@H](NC(=O)[C@H](NC(=O)[C@@H](N)CC(=O)O)C(C)C)c1ccc(O)cc1 [Example 4, α-L-aspartyl-D-valine (R)-α-methoxymethyl-p-hydroxybenzylamide] — higher, 1250
- CC(C)[C@@H](NC(=O)[C@@H](N)CC(=O)O)C(=O)N[C@@H](C)c1ccc(O)cc1 [Example 5, α-L-aspartyl-D-valine (S)-α-methyl-p-hydroxybenzylamide] — higher, 1000
- CC[C@H](NC(=O)[C@H](NC(=O)[C@@H](N)CC(=O)O)C(C)C)c1ccc(Cl)cc1 [Example 6, α-L-aspartyl-D-valine (S)-α-ethyl-p-chlorobenzylamide] — higher, 1250
- COC[C@H](NC(=O)[C@H](NC(=O)[C@@H](N)CC(=O)O)C(C)C)c1ccc(OC)cc1 [Example 8, α-L-aspartyl-D-valine (R)-α-methoxymethyl-p-methoxybenzylamide] — lower, 250

same assay, conditions: sugar=1; sensory evaluation

In the case of `COCC(NC(=O)[C@H](NC(=O)[C@@H](N)CC(=O)O)C(C)C)c1ccco1` (mixture of isomers) [Example 9, α-L-aspartyl-D-valine (RS)-α-furyl-β-methoxyethylamide], the “Sweetness Potency (sugar=1)” value is reported as “Approximately 200”.
For `CC[C@H](NC(=O)[C@H](NC(=O)[C@@H](N)CC(=O)O)C(C)C)c1ccncc1` [Example 7, α-L-aspartyl-D-valine (S)-α-4-pyridylpropylamide], the “Sweetness Potency (sugar=1)” value was “Approximately 300”.
For `COC[C@H](NC(=O)[C@H](NC(=O)[C@@H](N)CC(=O)O)C(C)C)c1ccc(OC)cc1` [Example 8, α-L-aspartyl-D-valine (R)-α-methoxymethyl-p-methoxybenzylamide], the “Sweetness Potency (sugar=1)” value was “Approximately 250”.

Point of comparison: `CC(C)[C@@H](NC(=O)[C@@H](N)CC(=O)O)C(=O)N[C@@H](C)c1ccc(O)cc1` [Example 5, α-L-aspartyl-D-valine (S)-α-methyl-p-hydroxybenzylamide], “Sweetness Potency (sugar=1)” value 1000. Against it:
- CC[C@H](NC(=O)[C@@H](CC)NC(=O)[C@@H](N)CC(=O)O)c1ccc(O)cc1 [Example 1, α-L-aspartyl-D-α-aminobutyric acid (S)-α-ethyl-p-hydroxybenzylamide] — higher, 2000
- CC[C@@H](NC(=O)[C@@H](N)CC(=O)O)C(=O)N[C@@H](COC)c1ccc(O)cc1 [Example 2, α-L-aspartyl-D-α-aminobutyric acid (R)-α-methoxymethyl-p-hydroxybenzylamide] — higher, 1500
- CC[C@H](NC(=O)[C@H](NC(=O)[C@@H](N)CC(=O)O)C(C)C)c1ccc(O)cc1 [Example 3, α-L-aspartyl-D-valine (S)-α-ethyl-p-hydroxybenzylamide] — higher, 1500
- COC[C@H](NC(=O)[C@H](NC(=O)[C@@H](N)CC(=O)O)C(C)C)c1ccc(O)cc1 [Example 4, α-L-aspartyl-D-valine (R)-α-methoxymethyl-p-hydroxybenzylamide] — higher, 1250
- CC[C@H](NC(=O)[C@H](NC(=O)[C@@H](N)CC(=O)O)C(C)C)c1ccc(Cl)cc1 [Example 6, α-L-aspartyl-D-valine (S)-α-ethyl-p-chlorobenzylamide] — higher, 1250

assay: Stability (half-life) heated to 70° C. in a phosphate buffer (pH=3); format: physicochemical; details: not given

For `COC(=O)[C@H](Cc1ccccc1)NC(=O)[C@@H](N)CC(=O)O` [aspartame] (H-Asp-Phe-OMe), the half-life was “approximately 1 days”.
